# Results reported in PubChem BioAssay (NCI).
#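 Test compounds were applied to cells in 96-well plates for 48 hours at 5 doses. Here, GI50 denotes the concentration required for 50% inhibition of growth. Definition used: TGI = concentration required for complete inhibition of growth.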
# What was measured:
# Experiment in all cases: NCI tumour cell line growth inhibition, 48 h
# [1] = tested on: 786-0 renal
# [2] = tested on: A498 renal
# [3] = tested on: A549 NSCLC
# [4] = tested on: ACHN renal
# [5] = tested on: BT-549 breast
# [6] = tested on: CAKI-1 renal
# [7] = tested on: CCRF-CEM leukemia
# [8] = tested on: COLO 205 colon
# [9] = tested on: DU-145 prostate
# [10] = tested on: EKVX NSCLC
# [11] = tested on: HCC-2998 colon
# [12] = tested on: HCT-116 colon
# [13] = tested on: HCT-15 colon
# [14] = tested on: HL-60(TB) leukemia
# [15] = tested on: HOP-62 NSCLC
# [16] = tested on: HOP-92 NSCLC
# [17] = tested on: HS 578T breast
# [18] = tested on: HT29 colon
# [19] = tested on: IGROV1 ovarian
# [20] = tested on: K-562 leukemia
# [21] = tested on: KM12 colon
# [22] = tested on: LOX IMVI melanoma
# [23] = tested on: M14 melanoma
# [24] = tested on: MALME-3M melanoma
# [25] = tested on: MCF7 breast
# [26] = tested on: MDA-MB-231 breast
# [27] = tested on: MDA-MB-435
# [28] = tested on: MOLT-4 leukemia
# [29] = tested on: NCI-H226 lung
# [30] = tested on: NCI-H23 lung
# [31] = tested on: NCI-H460 lung
# [32] = tested on: NCI-H522 lung
# [33] = tested on: NCI/ADR-RES ovarian
# [34] = tested on: OVCAR-3 ovarian
# [35] = tested on: OVCAR-4 ovarian
# [36] = tested on: OVCAR-5 ovarian
# [37] = tested on: OVCAR-8 ovarian
# [38] = tested on: PC-3 prostate
# [39] = tested on: RPMI-8226 leukemia
# [40] = tested on: RXF 393 renal
# [41] = tested on: SF-268 CNS
# [42] = tested on: SF-295 CNS
# [43] = tested on: SF-539 CNS
# [44] = tested on: SK-MEL-28 melanoma
# [45] = tested on: SK-MEL-5 melanoma
# [46] = tested on: SK-OV-3 ovarian
# [47] = tested on: SN12C renal
# [48] = tested on: SNB-19 CNS
# [49] = tested on: SNB-75 CNS
# [50] = tested on: SR leukemia
# [51] = tested on: SW-620 colon
# [52] = tested on: T-47D breast
# [53] = tested on: TK-10 renal
# [54] = tested on: U251 CNS
# [55] = tested on: UACC-257 melanoma
# [56] = tested on: UACC-62 melanoma
# [57] = tested on: UO-31 renal
smiles,measurement,setting,value
O=C1c2ccccc2C(=O)c2c(Nc3ccc(CCO)cc3)ccc(O)c21,GI50,[1],17.2 µM
same,TGI,[1],60.1 µM
same,GI50,[2],16.4 µM
same,TGI,[2],40.2 µM
same,GI50,[3],6.43 µM
same,TGI,[3],> 100 µM
same,GI50,[4],4.3 µM
same,TGI,[4],45.2 µM
same,GI50,[5],9.82 µM
same,TGI,[5],68.5 µM
same,GI50,[6],6.81 µM
same,TGI,[6],> 100 µM
same,GI50,[7],3.61 µM
same,TGI,[7],30.7 µM
same,GI50,[8],4.86 µM
same,TGI,[8],21.7 µM
same,GI50,[9],7.67 µM
same,TGI,[9],42.7 µM
same,GI50,[10],4.69 µM
same,TGI,[10],> 100 µM
same,GI50,[11],9.42 µM
same,TGI,[11],28.3 µM
same,GI50,[12],8.71 µM
same,TGI,[12],> 100 µM
same,GI50,[13],4.28 µM
same,TGI,[13],38.7 µM
same,GI50,[14],25.6 µM
same,TGI,[14],> 100 µM
same,GI50,[15],21.4 µM
same,TGI,[15],45.9 µM
same,GI50,[16],4.52 µM
same,TGI,[16],26.3 µM
same,GI50,[17],3.52 µM
same,TGI,[17],48 µM
same,GI50,[18],4.09 µM
same,TGI,[18],14.9 µM
same,GI50,[19],1.41 µM
same,TGI,[19],32.6 µM
same,GI50,[20],18.4 µM
same,TGI,[20],> 100 µM
same,GI50,[21],4.74 µM
same,TGI,[21],36.3 µM
same,GI50,[22],3.15 µM
same,TGI,[22],14.5 µM
same,GI50,[23],12.9 µM
same,TGI,[23],61.4 µM
same,GI50,[24],12.8 µM
same,TGI,[24],58 µM
same,GI50,[25],0.504 µM
same,TGI,[25],36.4 µM
same,GI50,[26],3.3 µM
same,TGI,[26],24.9 µM
same,GI50,[27],22.6 µM
same,TGI,[27],> 100 µM
same,GI50,[28],10.7 µM
same,TGI,[28],> 100 µM
same,GI50,[29],14.8 µM
same,TGI,[29],48.9 µM
same,GI50,[30],17.3 µM
same,TGI,[30],88.7 µM
same,GI50,[31],3.57 µM
same,TGI,[31],15.1 µM
same,GI50,[32],3.56 µM
same,TGI,[32],16.7 µM
same,GI50,[33],17.6 µM
same,TGI,[33],94.4 µM
same,GI50,[34],13.2 µM
same,TGI,[34],> 100 µM
same,GI50,[35],9.13 µM
same,TGI,[35],> 100 µM
same,GI50,[36],21.1 µM
same,TGI,[36],62.6 µM
same,GI50,[37],17.4 µM
same,TGI,[37],> 100 µM
same,GI50,[38],6.34 µM
same,TGI,[38],25.5 µM
same,GI50,[39],5.49 µM
same,TGI,[39],36.5 µM
same,GI50,[40],6.54 µM
same,TGI,[40],23.7 µM
same,GI50,[41],11 µM
same,TGI,[41],> 100 µM
same,GI50,[42],11.8 µM
same,TGI,[42],47.4 µM
same,GI50,[43],10.2 µM
same,TGI,[43],27.3 µM
same,GI50,[44],12.3 µM
same,TGI,[44],55.2 µM
same,GI50,[45],11.7 µM
same,TGI,[45],33.5 µM
same,GI50,[46],11 µM
same,TGI,[46],64.8 µM
same,GI50,[47],16.9 µM
same,TGI,[47],> 100 µM
same,GI50,[48],23 µM
same,TGI,[48],72.2 µM
same,GI50,[49],5.09 µM
same,TGI,[49],29 µM
same,GI50,[50],7.71 µM
same,TGI,[50],> 100 µM
same,GI50,[51],6.69 µM
same,TGI,[51],67.5 µM
same,GI50,[52],0.987 µM
same,TGI,[52],26.1 µM
same,GI50,[53],21.8 µM
same,TGI,[53],> 100 µM
same,GI50,[54],8.33 µM
same,TGI,[54],85.8 µM
same,GI50,[55],20.3 µM
same,TGI,[55],70.7 µM
same,GI50,[56],10.2 µM
same,TGI,[56],32.3 µM
same,GI50,[57],2.2 µM
same,TGI,[57],26.9 µM
